Results taken from patent US20250059153A1, “BICYCLIC QUINONES, PHARMACEUTICAL COMPOSITIONS, AND THERAPEUTIC APPLICATIONS” (priority 2022, published 2025).

Test system: Trypanosoma cruzi trypomastigote
Assay: Antiparasitic activity against Trypanosoma cruzi trypomastigote (viability by mobility under optical microscope)
Format: cell-based
Details: LLC-MK2, trypomastigotes from infected LLCMK2 cells, 1×10^7 parasites/mL, 24 h at 37° C.
Protocol: Antiparasitic Activity Against Trypanosoma cruzi
To evaluate antiparasitic activity against Trypanosoma cruzi trypomastigote, parasites were obtained from the supernatant of infected LLCMK2 cells. Trypomastigote (1×10^7 parasites/mL) was resuspended in DMEM supplemented with 10% FBS. The parasites were incubated in the presence of a compound at 500, 200, 100, 50, 10, 5, 1, 0.5, and 0.25 μM in 96-well plates for 24 h at 37° C. with 5% CO2. After incubation, the viability of the parasites was determined by examining mobility under an optical microscope. See, e.g., Brener, Rev. Inst. Med. Trop. São Paulo. 1962, 4, 389-96.

EC50: 2300 ± 300 nM
Structure (SMILES): Cc1cc(=O)c2occoc=2c1=O [Compound A1, 6-methylbenzo[b][1,4]dioxine-5,8-dione]
